Like-named read-outs stand apart in the source and are kept apart here. Marks after values point to notes of the source that are not given here.
Assays:
[1] = test system: SW480 CRC xenograft model; experiment: SW480 xenograft antitumor efficacy; type: in vivo, mouse; conditions: for Treatment/Control Ratio: Day 24; for Response: PD (progressive disease) / Response: PR (partial response) / Response: SD (stable disease): Day 24, RECIST
From the text: In the SW480 efficacy study, immunocompromised female NMRI nu/nu mice (8–10 weeks, 18–21 g, Taconic M&B A/S) were inoculated subcutaneously with 3 × 10^6 SW480 cells suspended in 50% Matrigel®/50% medium. The mice were randomized into control and treatment groups (n = 8) when the SW480 tumors reached an average size of 25 mm^2.
Subcutaneous tumor growth was monitored by measuring tumor area (length × width) using a caliper. Animal body weight was monitored as an indicator of treatment-related toxicity. Measurement of tumor area and body weight was performed at least twice weekly. Individual animals were sacrificed when showing >20% body weight loss or when tumors reached a maximum area of ~200 mm^2 unless ulceration or other predefined humane endpoints were met. At study termination, the animals were sacrificed by cervical dislocation under CO2 anesthesia. T/C (treatment/control) ratios were calculated using the final mean tumor areas at study or control group termination. […] Progressive disease (PD) was defined as a greater than 20% increase in tumor size. Partial response (PR) was defined as a greater than 30% reduction in tumor size. Complete response (CR) was defined as an absence of any palpable tumor mass. No tumor growth or a slight reduction (<30%) or small increase (<20%) in tumor size was defined as stable disease (SD).

[2] = test system: NCI-H69 SCLC xenograft model; experiment: NCI-H69 xenograft antitumor efficacy and tolerability; type: in vivo, mouse; conditions: for Treatment/Control Ratio / Response: PD (progressive disease) / Response: SD (stable disease): NCI-H69, Day 31; for Response: PD (progressive disease) / Response: SD (stable disease): RECIST
Method: Irinotecan, doxorubicin, topotecan, cisplatin, and 5-FU were diluted in 0.9% NaCl.
In the NCI-H69 efficacy study, immunocompromised female NMRI nu/nu mice (8–10 weeks, 18–21 g, Taconic M&B A/S) were inoculated s.c. with 3 × 10^6 NCI-H69 cells suspended in 50% Matrigel®/50% medium. The mice were randomized into control and treatment groups (n = 8) when the NCI-H69 tumors reached an average size of 25 mm^2.
(§3) Subcutaneous tumor growth was monitored by measuring tumor area (length × width) using a caliper. Animal body weight was monitored as an indicator of treatment-related toxicity. Measurement of tumor area and body weight was performed at least twice weekly. Individual animals were sacrificed when showing >20% body weight loss or when tumors reached a maximum area of ~200 mm^2 unless ulceration or other predefined humane endpoints were met. At study termination, the animals were sacrificed by cervical dislocation under CO2 anesthesia. T/C (treatment/control) ratios were calculated using the final mean tumor areas at study or control group termination. Treatment responses were defined on the last day of the vehicle group (Day 38 for 786-O, Day 86 for MX-1, Day 31 for NCI-H69, and Day 24 for SW480) using the RECIST criteria [59]. Progressive disease (PD) was defined as a greater than 20% increase in tumor size. Partial response (PR) was defined as a greater than 30% reduction in tumor size. Complete response (CR) was defined as an absence of any palpable tumor mass. No tumor growth or a slight reduction (<30%) or small increase (<20%) in tumor size was defined as stable disease (SD).

[3] = test system: MX-1 TNBC xenograft model
From the text: In the MX-1 efficacy study, the in vivo-grown tumor fragments (2 mm × 2 mm × 2 mm) were implanted s.c. in immunocompromised female NMRI nu/nu mice (8–10 weeks, 18–21 g, Taconic M&B A/S). The mice were randomized into control and treatment groups (n = 8) when the MX-1 tumors reached an average size of 25 mm^2.
as §3

NCI-H1975-P-gp cells = experiment: Cytotoxicity (Alamar Blue), NCI-H1975-P-gp; type: cell-based, human; conditions: 72 h, no elastase
NCI-H1975-BCRP cells = experiment: Cytotoxicity (Alamar Blue), NCI-H1975-BCRP; type: cell-based, human; conditions: 72 h, no elastase
Method: (§1) Cells (6 × 10^3 cells/well) were plated in RPMI-1640 medium supplemented with 2% fetal calf serum (FCS) minimal media (MM) in 96-well plates and allowed to adhere at 37 °C/5% CO2 for 24 h. […] The cells were incubated at 37 °C/5% CO2 for 72 h. Then, Alamar Blue (#DAL1100, Invitrogen, Waltham, MA, USA) was added at a 1:1 ratio, the cells were incubated at 37 °C/5% CO2 for 4 h, and fluorescence (530 nm/590 nm) was measured with a VICTOR X2 Multilabel Reader (PerkinElmer, Waltham, MA, USA). The fluorescent signal was directly proportional to the number of viable cells. The half-maximal growth inhibition (IC50) was determined from the dose–response curves using the GraphPad Prism software.

[4] = target: T1, human P-gp-expressing LLC-PK1 cells (Homo sapiens, UniProt P08183); experiment: Flux assay in human P-gp-expressing LLC-PK1 (L-MDR1) cells; type: in vitro ADME; conditions: 2 μM, 2 h
T1 construct: Schinkel, Netherlands Cancer Institute; host or cells: LLC-PK1 porcine renal epithelial cells (L-MDR1)
Method: (§2) Before and after incubation for 2 h at 37 °C, samples were taken from both compartments and analyzed by LC-MS/MS. The apparent permeability coefficient (Papp) was calculated for both the apical to basolateral (A → B) and the basolateral to apical (B → A) direction as described by Schwab et al..

Caco-2 cells = experiment: Flux assay in Caco-2 cells; type: in vitro ADME, human; conditions: 2 μM, 2 h
Method: as §2

NCI-H1975 cells = experiment: Cytotoxicity (Alamar Blue), parental NCI-H1975; type: cell-based, human; conditions: 72 h, no elastase
Method: as §1

[5] = cisplatin 3 mg/kg, Q3Dx14, i.p.
[6] = MX-1, irinotecan 15 mg/kg, 4 on/3 off, i.v., Day 86, RECIST
[7] = MX-1, irinotecan 30 mg/kg, Q2/3Dx9, i.v., Day 86, RECIST
[8] = irinotecan 15 mg/kg, 4 on/3 off, i.v.
[9] = irinotecan 30 mg/kg, Q2/3D, i.v.
[10] = topotecan 0.5 mg/kg, 7 on/7 off, i.v.

T1 sequence (P08183 whole entry): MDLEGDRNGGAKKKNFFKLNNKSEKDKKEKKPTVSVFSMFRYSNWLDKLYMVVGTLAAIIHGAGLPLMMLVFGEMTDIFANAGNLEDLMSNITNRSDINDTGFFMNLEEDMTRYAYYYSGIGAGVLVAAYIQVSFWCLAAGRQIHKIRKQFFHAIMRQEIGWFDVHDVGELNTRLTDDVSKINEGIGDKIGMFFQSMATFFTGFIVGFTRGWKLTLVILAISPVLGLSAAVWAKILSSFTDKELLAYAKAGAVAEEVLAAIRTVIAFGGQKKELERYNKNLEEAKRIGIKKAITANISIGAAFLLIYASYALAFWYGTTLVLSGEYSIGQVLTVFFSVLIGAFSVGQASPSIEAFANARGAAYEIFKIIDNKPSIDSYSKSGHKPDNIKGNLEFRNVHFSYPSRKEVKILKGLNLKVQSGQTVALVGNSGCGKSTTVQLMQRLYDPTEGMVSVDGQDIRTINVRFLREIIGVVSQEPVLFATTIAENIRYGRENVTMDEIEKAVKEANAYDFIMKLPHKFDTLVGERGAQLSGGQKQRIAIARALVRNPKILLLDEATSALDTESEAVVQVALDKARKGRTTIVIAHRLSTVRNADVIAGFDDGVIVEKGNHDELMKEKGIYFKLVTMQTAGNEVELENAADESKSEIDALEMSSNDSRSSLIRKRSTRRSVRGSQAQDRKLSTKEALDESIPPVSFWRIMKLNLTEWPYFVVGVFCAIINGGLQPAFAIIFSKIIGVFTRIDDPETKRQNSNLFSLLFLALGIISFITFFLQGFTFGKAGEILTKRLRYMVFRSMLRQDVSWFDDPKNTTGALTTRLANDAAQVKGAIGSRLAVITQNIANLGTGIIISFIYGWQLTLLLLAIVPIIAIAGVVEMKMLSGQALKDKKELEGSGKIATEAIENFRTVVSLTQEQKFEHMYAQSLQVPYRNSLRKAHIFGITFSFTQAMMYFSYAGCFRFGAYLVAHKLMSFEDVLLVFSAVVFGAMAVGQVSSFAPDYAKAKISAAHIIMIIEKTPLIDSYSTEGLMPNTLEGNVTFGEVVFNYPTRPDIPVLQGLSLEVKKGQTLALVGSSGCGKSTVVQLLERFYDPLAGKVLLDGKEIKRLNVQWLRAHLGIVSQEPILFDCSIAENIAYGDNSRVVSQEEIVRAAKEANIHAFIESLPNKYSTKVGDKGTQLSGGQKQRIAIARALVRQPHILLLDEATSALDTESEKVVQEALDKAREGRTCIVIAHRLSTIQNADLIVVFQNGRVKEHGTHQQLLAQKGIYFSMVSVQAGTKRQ

Q: `O=c1[nH]cc(F)c(=O)[nH]1` [5-FU, 5-fluorouracil] was tested. Which “Treatment/Control Ratio” value ([1]; 5-FU 100 mg/kg, Q7D, i.p.) did it give?
A: 0.54 ***

Q: And the “Response: PD (progressive disease)” value ([1]; 5-FU 100 mg/kg, Q7D, i.p.)?
A: PD: 8/8

Q: With `N.N.[Cl][Pt][Cl]` [Cisplatin] as the compound, how does the “Treatment/Control Ratio” value [2, 5] read?
A: 0.25 ***

Q: What about the “Response: PD (progressive disease)” value [2, 5] of the same compound?
A: 7/8

Q: And the “Response: SD (stable disease)” value [2, 5]?
A: 1/8

Q: What about the “Relative body weight loss” value ([2]; NCI-H69 tumor-bearing mice, cisplatin 3 mg/kg, Q3Dx14, i.p.) of the same compound?
A: > 10%

Q: What about the Animal deaths ([2]; NCI-H69 tumor-bearing mice, cisplatin 3 mg/kg, Q3Dx14, i.p., Day 46) of the same compound?
A: one animal died

Q: For `COc1cccc2c1C(=O)c1c(O)c3c(c(O)c1C2=O)C[C@@](O)(C(=O)CO)C[C@@H]3O[C@H]1C[C@H](N)[C@H](O)[C@H](C)O1` [Doxorubicin], which “Treatment/Control Ratio” value ([3]; MX-1, doxorubicin 10 mg/kg, Q14Dx2, i.v., Day 86) is on record?
A: 0.49 ***

Q: Which results are given for `CCc1c2c(nc3ccc(OC(=O)N4CCC(N5CCCCC5)CC4)cc13)-c1cc3c(c(=O)n1C2)COC(=O)[C@]3(O)CC` [Irinotecan]?
A: Treatment/Control Ratio ([3]; MX-1, irinotecan 15 mg/kg, 4 on/3 off, i.v., Day 86): 0.002 ***; Response: CR (complete response) [3, 6]: CR: 4/8, PR: 4/8; Response: PR (partial response) [3, 6]: CR: 4/8, PR: 4/8; Tumor regrowth after treatment was stopped ([3]; MX-1, irinotecan 30 mg/kg, Q2/3Dx9, i.v.): clear tumor regrowth; Treatment/Control Ratio ([3]; MX-1, irinotecan 30 mg/kg, Q2/3Dx9, i.v., Day 86): 0.15 ***^, #; Response: PR (partial response) [3, 7]: 5/7; Response: SD (stable disease) [3, 7]: 2/7; Relative body weight loss ([3]; mouse, in vivo): > 10%; Tumor regrowth after treatment cessation ([1]; all VIP236- and irinotecan-treated mice): moderate tumor regrowth; Treatment/Control Ratio [1, 8]: 0.13 ***; Response: PR (partial response) [1, 8]: 5/8; Response: SD (stable disease) [1, 8]: 3/8; Treatment/Control Ratio [1, 9]: 0.15 ***; Response: PD (progressive disease) [1, 9]: 1/8; Response: PR (partial response) [1, 9]: 4/8; Response: SD (stable disease) [1, 9]: 3/8

Q: What does the source list for `CCc1c2c(nc3ccc(O)cc13)-c1cc3c(c(=O)n1C2)COC(=O)[C@]3(O)CC` [SN38]?
A: IC50 (NCI-H1975-P-gp cells): 141 nM; IC50 (NCI-H1975-BCRP cells): 512 nM; Efflux Ratio [4]: 16; Permeability A → B [4]: 1 ×10⁻⁶ cm/s; Efflux Ratio (Caco-2 cells): 36; Permeability A → B (Caco-2 cells): 0.8 ×10⁻⁶ cm/s; IC50 (NCI-H1975 cells): 45 nM

Q: Which “Treatment/Control Ratio” value [2, 10] does the source give for `CC[C@@]1(O)C(=O)OCc2c1cc1n(c2=O)Cc2cc3c(CN(C)C)c(O)ccc3nc2-1` [Topotecan] here?
A: 0.20 ***

Q: And the “Response: PD (progressive disease)” value [2, 10]?
A: 7/8

Q: And the “Response: SD (stable disease)” value [2, 10]?
A: 1/8

Q: What about the “Relative body weight loss” value ([2]; NCI-H69 tumor-bearing mice, topotecan 0.5 mg/kg, 7 on/7 off, i.v.) of the same compound?
A: > 10%

From publication PMC8773721, “A Small Molecule–Drug Conjugate (SMDC) Consisting of a Modified Camptothecin Payload Linked to an αVß3 Binder for the Treatment of Multiple Cancer Types” (Cancers, 2022)
